# Test results published in patent US20240327415A1, “Multicomponent Complexes, Including Salts, Crystalline Forms, and Hydrates and Solvates of ENT1 Inhibitors” (iTeos Belgium SA, priority 2023, published 2024).
# Columns and labels:
# [1] = Variable Temperature X-Ray Powder Diffraction (VT-XRPD); format: physicochemical; parameters: key: M4: Crystalline Form 4 mono(hydrogen sulfate); M8: Crystalline Form 8 mono(hydrogen sulfate); Amorphous mono(hydrogen sulfate)
# Procedure: (§1) In the examples below, VT-XRPD analysis was carried out on a Philips X'Pert Pro Multipurpose diffractometer equipped with a temperature chamber. The samples were scanned between 4 and 36° 2θ using Cu K radiation (α1 λ=1.54060 Å; α2=1.54443 Å; β=1.39225 Å; α1: α2 ratio=0.5; most, if not all, B radiation is removed from the beam using an X-ray mirror) running in Bragg-Brentano geometry (step size 0.008° 2θ) using 40 kV/40 mA generator settings. Measurements were carried out from ambient temperature to an upper limit of 250° C., with a final measurement taken after cooling.
# as §1, with “VT-XRPD” for “In the examples below, VT-XRPD”, “Å; β2=1.39225” for “Å; β=1.39225”, “Å; α1:α2” for “Å; α1: α2”, “all, β” for “all, B”
# ENT1 = molecular target: T1, ENT1 (Homo sapiens, UniProt Q99808); experiment: ENT1 activity: intracellular uptake of 5-Ethynyl-Uridine (5EU) in whole blood, CD19 positive cells, flow cytometry; format: cell-based; settings: 5EU 60 min at 37° C.
# T1 construct: endogenous in cells; host or cells: CD19-positive cells (B cells) in whole blood from healthy donors
# T1 sequence (Q99808 1-456): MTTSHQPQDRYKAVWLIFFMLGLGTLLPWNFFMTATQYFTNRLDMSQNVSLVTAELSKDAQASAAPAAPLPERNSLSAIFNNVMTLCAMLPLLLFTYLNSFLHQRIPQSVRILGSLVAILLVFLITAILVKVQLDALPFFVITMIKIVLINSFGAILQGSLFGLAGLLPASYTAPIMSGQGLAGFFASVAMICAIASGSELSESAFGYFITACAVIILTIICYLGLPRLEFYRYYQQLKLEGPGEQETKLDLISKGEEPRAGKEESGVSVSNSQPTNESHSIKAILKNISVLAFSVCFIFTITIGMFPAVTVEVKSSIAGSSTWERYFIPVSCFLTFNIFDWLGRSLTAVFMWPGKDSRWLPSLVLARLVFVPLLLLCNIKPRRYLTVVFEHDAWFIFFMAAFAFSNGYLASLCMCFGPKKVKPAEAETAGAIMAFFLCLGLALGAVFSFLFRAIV
# Procedure: Example 20-ENT1 Activity of Crystalline Form 2 Compound 1 di(hydrogen sulfate) trihydrate compared to Compound 1 (free base)-Initial and after Six-Month Storage: (1) Initial time: Whole blood from 8 healthy donors was incubated with 5-Ethynyl-Uridine (5EU, CAS #: 69075-42-9, Jena Bioscience) for 60 min at 37° C., in the absence or presence of freshly suspended 1 μM Compound 1 (free base) or 1 μM Form 2 Compound 1 di(hydrogen sulfate) trihydrate. Intracellular uptake of 5EU through ENT1 transporters was assessed by standard flow cytometry and ENT1 activity was determined.
# In FIG. 101, the data are expressed as % of ENT1 activity in untreated CD19 cells, arbitrary set at 100%, and are the means±SD of three independent experiments. Statistical analysis was performed using one-way analysis of variance (ANOVA) followed by Tukey's post hoc analysis with Prism 10.1.2 software (GraphPad Software). *: p<0.0001 vs. untreated B cells; ns: non-significant.
# (2) Six months: Compound stability was evaluated on suspended solutions of Compound 1 (free base) or Form 2 Compound 1 di(hydrogen sulfate) trihydrate that were stored at −20° C. for 6 months. On the day of the experiment, whole blood from 3 healthy donors was incubated with 5-Ethynyl-Uridine (5EU, CAS #: 69075-42-9, Jena Bioscience) for 60 min at 37° C., in the absence or presence of either 1 μM Compound 1 (free base) or 1 μM Form 2 Compound 1 di(hydrogen sulfate) trihydrate of 6-month-old solutions. Intracellular uptake of 5EU through ENT1 transporters was assessed by standard flow cytometry and ENT1 activity was determined.
# In FIG. 102, the data are expressed as % of ENT1 activity in untreated CD19 cells, arbitrary set at 100%, and are the means±SD. Statistical analysis was performed using two-way analysis of variance (ANOVA) with Prism 10.1.2 software (GraphPad Software). *: p<0.05 vs. untreated B cells; **: p<0.01 vs. untreated B cells; ns: non-significant.
Compound,"VT-XRPD Results ([1]; Cooling, 30° C., hold 10 min)","VT-XRPD Results ([1]; Heating, 40° C., hold 60 min)","VT-XRPD Results ([1]; Heating, 50° C., hold 60 min)","VT-XRPD Results ([1]; Heating, 70° C., hold 60 min)","VT-XRPD Results ([1]; second Heating, 50° C., hold 60 min)","VT-XRPD Results ([1]; second Heating, 70° C., hold 60 min)","VT-XRPD Results ([1]; second Heating, 90° C., hold 60 min)","VT-XRPD Results ([1]; second Heating, 100° C., hold 60 min)","VT-XRPD Results ([1]; second Heating, 110° C., hold 60 min)","decrease of ENT1 activity compared to untreated CD19 positive cells (ENT1; 1 μM of solutions stored at −20° C. for 6 months, whole blood from 3 healthy donors)","decrease of ENT1 activity compared to untreated CD19 positive cells (ENT1; 1 μM, freshly suspended, whole blood from 8 healthy donors)"
COc1cc(C(=O)O[C@@H]2CCCOc3cc(cc(OC)c3OC)C(=O)NCCCN3CCCN(CC2)CC3)cc(OC)c1OC.O=S(=O)(O)O,M8,M8,M8,M8,M8,M8,Amorphous,Amorphous,Amorphous,,
CCCN1CCNCCCNC(=O)c2cc(OC)c(OC)c(c2)OCCC[C@@H](OC(=O)c2cc(OC)c(OC)c(OC)c2)CC1,,,,,,,,,,30.4%,43.9%
